How the values were obtained:
Format in all cases: cell-based, human
HeLa cells [1] = test: Fluorescent double staining (Hoechst 33258 / propidium iodide) morphology; settings: 24 h, 1.0, 3.0 or 5.0 μM
Description: Fluorescent double staining was performed in order to detect apoptosis induction and morphological changes using fluorescent microscopy. HeLa cells were seeded into a 96-well plate at the density of 3,000Ȓ5,000 cells per well. After an overnight incubation, the cells were treated with various concentrations of the test compounds for 24 h. The treated cells were then incubated with a fluorescent staining solution (containing Hoechst 33258 and propidium iodide, 500 and 300 μg/mL, respectively) for an hour. After staining, the cells were analyzed using a fluorescent microscope (Nikon ECLIPSE 146 TS100, Nikon Instruments Europe, Amstelveen, Netherlands) equipped with appropriate optical filters. For all different conditions, at least six fields were recorded with an attached QCapture CCD camera. This way cells with an intact, apoptotic or necrotic morphology can be distinguished based on their different nuclear morphological appearance and distinct membrane integrity.

MRC-5 = test: MTT assay, non-cancerous fibroblasts MRC-5; settings: Homo sapiens, MRC5, 72 h, read-out: Growth inhibition (%) ± SEM; for inhibition at 10 µM: MRC-5, 10 μM; for inhibition at 30 µM: MRC-5, 30 μM
Description: (§1) Gynecological cancer cell lines, including ovarian (A2780), cervical (HeLa), and breast cancer cell lines (MCF7, T47D, MDA-MB-231, and MDA-MB-361) were purchased from the European Collection of Authenticated Cell Cultures (ECACC, Salisbury, United Kingdom). Additional cervical cell lines (SiHa and C33A) and a non-cancerous immortalized, mammary gland epithelial cell line (hTERT-HME1) were purchased from LGC Standards GmbH (Wesel, Germany). Non-cancerous fibroblast cells (MRC-5) were also obtained from the ECACC. All cells were cultured in minimal essential medium supplemented with 10% fetal bovine serum, 1% non-essential amino acids, and 1% antibiotic-antimycotic mixture, in humidified air containing 5% CO2 at 37°C. Immortalized hTERT-HME1 cells were maintained in serum-free mammary epithelial cell growth medium (MEGM) supplemented with insulin, human epidermal growth factor (hEGF), hydrocortisone, bovine pituitary extract, and an antibiotic-antimycotic mixture. All the medium and supplements were purchased from Lonza Group Ltd. (Basel, Switzerland).
(§2) The antiproliferative properties of the compounds were assessed by an MTT assay ([Mosmann, 1983]). Cells were seeded onto 96-well microplates at a density of 10,000 cells/well (MDA-MB-361 and C33A) or 5,000 cells/well (all other cell lines). After an overnight incubation, fresh medium containing the test compounds (at a concentration of 10 or 30 μM) was added. After incubation for 72 h at 37°C in humidified air, [3-(4,5-dimethylthiazol-2-yl)-2,5-diphenyltetrazolium bromide] (MTT) solution (5 mg/mL) was added. Purple formazan crystals were formed by the living cells during a 4 h contact period, which were assayed by spectrophotometry after having been dissolved in 100 μL DMSO. Untreated cells served as control, and cisplatin (CIS) (Ebewe Pharma GmbH, Unterach, Austria) was used as a reference compound. […] Two independent measurements were performed with five parallel wells. To present preliminary data concerning tumor selectivity of the potent compounds, the procedure was repeated on MRC-5 fibroblast and hTERT-HME1 immortalized mammary gland epithelial cells under the same experimental conditions.

C33A = test: MTT antiproliferative assay, C33A; settings: Homo sapiens, C-33-A, 72 h, read-out: Growth inhibition (%) ± SEM
Description: as §1, §2

HeLa cells [2] = test: Flow cytometric analysis of cell cycle
Description: The distribution of cells in different cell cycle phases (subG1, G1, S and G2/M) was analyzed via the measurement of cellular DNA content by flow cytometry. HeLa cells were seeded onto 6-well plates and allowed to stand for an overnight. The cells were treated with the selected compounds for 24, 48, or 72 h. Then cells were harvested, washed and fixed in ice cold 70% ethanol and stored at −20°C at least for an hour. Next, a DNA staining solution (containing distilled water, propidium-iodide, Triton-X100, sodium citrate, and ribonuclease-A) was added to each sample and stored in the dark at room temperature for an hour. Stained cells were analyzed by flow cytometry (Partec CyFlow, Partec GmbH, Munster, Germany) with at least 20,000 cells being evaluated for each analysis. Data processing was performed using the ModFit LT 3.3.11 software (Verity Software House, Topsham, ME, United States).

For `C[C@]12CC[C@H]3[C@@H](CCC4=CC(=O)CC[C@@H]43)[C@@H]1CC[C@@H]2O` [Compound 1, 19-nortestosterone, reference compound], the “apoptotic and necrotic cell populations (morphology)” value (HeLa cells [1]) was “substantial and concentration-dependent increase in both the apoptotic and necrotic cell populations”, the inhibition at 10 µM (MRC-5) was 5.4 ± 1.2% and the inhibition at 30 µM (MRC-5) was 11.3 ± 0.5%. For the same compound, the inhibition at 10 µM (C33A) was less than 20%, the inhibition at 30 µM (C33A) was 25.2 ± 1.7% and the “effect on cell cycle phase distribution” value (HeLa cells [2]; 24 h) was “significant decrease in the G1 and a moderate but significant increase in the G2/M phase cell population”. The “effect on cell cycle phase distribution” value (HeLa cells [2]; 48 h) was “these changes became more pronounced” and the “effect on cell cycle phase distribution” value (HeLa cells [2]; 72 h) was “concentration-dependent accumulation of hypodiploid cells”.

In the case of `C[C@]12CC[C@H]3[C@@H](CCC4=CC(=O)CC[C@@H]43)[C@@H]1CC[C@H]2Cl` [Compound 3], the “apoptotic and necrotic cell populations (morphology)” value (HeLa cells [1]) is reported as “substantial and concentration-dependent increase in both the apoptotic and necrotic cell populations”, the inhibition at 10 µM (MRC-5) is reported as 4.3 ± 3.7% and the inhibition at 30 µM (MRC-5) is reported as 8 ± 2.3%. The inhibition at 10 µM (C33A) was less than 20%, the inhibition at 30 µM (C33A) was 61.7 ± 1.7% and the “effect on cell cycle phase distribution” value (HeLa cells [2]; 24 h) was “did not have any remarkable effect on cell cycle”. For the same compound, the “effect on cell cycle phase distribution” value (HeLa cells [2]; 48 h) was “substantially elevated increase of the subG1 population at the expense of G1 cells”.

From article PMC6072853 (Frontiers in Pharmacology, 2018)
